This is an account of results in patent US20240197686A1, “ANTI-TUMORAL EFFECTIVE BENZIMIDAZOLE ZINC COMPLEXES” (INONU UNIVERSITESI REKTORLUGU, priority 2022, published 2024).

“Also recorded” adds a separate entry of the source.

For series [1], the system named is lung, liver, kidney tissues. Nature of the series: Histology (H-E, light microscope) of lung, liver, kidney tissues of tumour developed nude rats. It is filed as in vivo. The note with it: for Histopathological damage in lung, liver and kidney tissues (overall): rat, in vivo. An excerpt:
After […] operation; lung, liver, kidney tissues were taken and 10% were fixed in formaldehyde, and the sections prepared after their histological tissue follow-up procedures were examined with a light microscope.

The subject of series [2] is Lung Cancer. The note with it: lung cancer treatment; cited from earlier work.

With `N.N.[Cl][Pt][Cl]` [Cisplatin, cis-diamminedichloroplatinum II], in series [1] (H-E sections), the Kidney histology entry is “narrowing in glomerular Bowman's space (arrow), tubule epithelial damage; also recorded: Glomerular collapse and vascular congestion”; the Liver histology entry is “hemorage (aster) in parenchymal area, vascular congestion; also recorded: hemorrhagic fields and vascular congestion in parenchyma”; the Lung histology result was “Secretion (aster) in bronchiole lumen, vascular congestion; also recorded: Secretion accumulations and vascular congestion”. Also, in series [1], the “Histopathological damage in lung, liver and kidney tissues (overall)” value is listed as “caused tissue damages”. Further, the “Histopathological damage in lung, liver and kidney tissues (overall)” value in series [1] (listed as cisplatin) is “causes histopathological damages in lung, liver and kidney tissues”. Further, the surviving in series [2] is given as 6 months.
